Measurements published in PubChem BioAssay (NCI).
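The compound was tested at five concentrations on cells cultured in 96-well plates, with a 48-hour exposure period. At the TGI there is no net growth.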

Legend:
Assay in all cases: NCI tumour cell line growth inhibition, 48 h
[1] = tested on: A498 renal
[2] = tested on: A549 NSCLC
[3] = tested on: CCRF-CEM leukemia
[4] = tested on: COLO 205 colon
[5] = tested on: DLD-1 colon
[6] = tested on: DMS 114 small cell lung
[7] = tested on: DMS 273 small cell lung
[8] = tested on: EKVX NSCLC
[9] = tested on: HCC-2998 colon
[10] = tested on: HCT-116 colon
[11] = tested on: HCT-15 colon
[12] = tested on: HL-60(TB) leukemia
[13] = tested on: HOP-18 NSCLC
[14] = tested on: HOP-62 NSCLC
[15] = tested on: HOP-92 NSCLC
[16] = tested on: HT29 colon
[17] = tested on: IGROV1 ovarian
[18] = tested on: K-562 leukemia
[19] = tested on: KM12 colon
[20] = tested on: KM20L2 colon
[21] = tested on: LOX IMVI melanoma
[22] = tested on: M19-MEL melanoma
[23] = tested on: MALME-3M melanoma
[24] = tested on: MCF7 breast
[25] = tested on: MOLT-4 leukemia
[26] = tested on: NCI-H23 lung
[27] = tested on: NCI-H460 lung
[28] = tested on: NCI-H522 lung
[29] = tested on: NCI/ADR-RES ovarian
[30] = tested on: OVCAR-3 ovarian
[31] = tested on: OVCAR-4 ovarian
[32] = tested on: OVCAR-5 ovarian
[33] = tested on: OVCAR-8 ovarian
[34] = tested on: P388 leukemia
[35] = tested on: RPMI-8226 leukemia
[36] = tested on: RXF 393 renal
[37] = tested on: SF-268 CNS
[38] = tested on: SF-539 CNS
[39] = tested on: SK-MEL-2 melanoma
[40] = tested on: SK-MEL-28 melanoma
[41] = tested on: SK-MEL-5 melanoma
[42] = tested on: SN12C renal
[43] = tested on: SN12K1 renal
[44] = tested on: SNB-19 CNS
[45] = tested on: SNB-75 CNS
[46] = tested on: SNB-78 CNS
[47] = tested on: SW-620 colon
[48] = tested on: U251 CNS
[49] = tested on: UACC-257 melanoma
[50] = tested on: UACC-62 melanoma
[51] = tested on: 786-0 renal
[52] = tested on: ACHN renal
[53] = tested on: CAKI-1 renal
[54] = tested on: LXFL 529 NSCLC
[55] = tested on: M14 melanoma
[56] = tested on: NCI-H226 lung
[57] = tested on: RXF-631 renal
[58] = tested on: SF-295 CNS
[59] = tested on: SK-OV-3 ovarian
[60] = tested on: SR leukemia
[61] = tested on: TK-10 renal
[62] = tested on: UO-31 renal
[63] = tested on: XF 498 CNS
[64] = tested on: P388/ADR leukemia

NC1CCCCC1
TGI [1]: > 562 µM
TGI [2]: > 562 µM
TGI [3]: > 562 µM
TGI [4]: > 56.2 µM
TGI [5]: > 562 µM
TGI [6]: > 56.2 µM
TGI [7]: > 562 µM
TGI [8]: > 562 µM
TGI [9]: > 562 µM
TGI [10]: > 562 µM
TGI [11]: > 562 µM
TGI [12]: 380 µM
TGI [13]: < 0.0562 µM
TGI [14]: > 562 µM
TGI [15]: > 562 µM
TGI [16]: > 562 µM
TGI [17]: > 562 µM
TGI [18]: > 562 µM
TGI [19]: > 562 µM
TGI [20]: > 562 µM
TGI [21]: > 562 µM
TGI [22]: > 562 µM
TGI [23]: > 562 µM
TGI [24]: > 562 µM
TGI [25]: > 562 µM
TGI [26]: > 562 µM
TGI [27]: > 562 µM
TGI [28]: > 562 µM
TGI [29]: > 562 µM
TGI [30]: > 562 µM
TGI [31]: > 562 µM
TGI [32]: > 562 µM
TGI [33]: > 562 µM
TGI [34]: 243 µM
TGI [35]: > 562 µM
TGI [36]: > 562 µM
TGI [37]: > 562 µM
TGI [38]: 418 µM
TGI [39]: > 562 µM
TGI [40]: > 562 µM
TGI [41]: > 562 µM
TGI [42]: > 562 µM
TGI [43]: > 562 µM
TGI [44]: > 562 µM
TGI [45]: > 562 µM
TGI [46]: > 562 µM
TGI [47]: > 562 µM
TGI [48]: > 562 µM
TGI [49]: > 562 µM
TGI [50]: > 562 µM

O=c1[nH]c2nc3ccccc3n2c(O)c1-c1ccccc1
TGI [51]: > 100 µM
TGI [1]: > 100 µM
TGI [2]: > 100 µM
TGI [52]: > 100 µM
TGI [53]: > 100 µM
TGI [3]: > 100 µM
TGI [4]: > 100 µM
TGI [5]: > 100 µM
TGI [6]: > 100 µM
TGI [7]: > 100 µM
TGI [8]: > 100 µM
TGI [9]: > 100 µM
TGI [10]: > 100 µM
TGI [11]: > 100 µM
TGI [12]: > 100 µM
TGI [13]: > 100 µM
TGI [14]: > 100 µM
TGI [15]: > 100 µM
TGI [16]: > 100 µM
TGI [17]: > 100 µM
TGI [18]: > 100 µM
TGI [19]: > 100 µM
TGI [20]: > 100 µM
TGI [21]: > 100 µM
TGI [54]: > 100 µM
TGI [55]: > 100 µM
TGI [22]: > 100 µM
TGI [23]: > 100 µM
TGI [25]: > 100 µM
TGI [56]: > 100 µM
TGI [26]: > 100 µM
TGI [27]: > 100 µM
TGI [28]: > 100 µM
TGI [30]: > 100 µM
TGI [31]: > 100 µM
TGI [32]: > 100 µM
TGI [33]: > 100 µM
TGI [35]: > 100 µM
TGI [36]: > 100 µM
TGI [57]: > 100 µM
TGI [37]: > 100 µM
TGI [58]: > 100 µM
TGI [38]: > 100 µM
TGI [39]: > 100 µM
TGI [40]: > 100 µM
TGI [41]: > 100 µM
TGI [59]: > 100 µM
TGI [42]: > 100 µM
TGI [44]: > 100 µM
TGI [45]: > 100 µM
TGI [46]: > 100 µM
TGI [60]: > 100 µM
TGI [47]: > 100 µM
TGI [61]: > 100 µM
TGI [48]: > 100 µM
TGI [49]: > 100 µM
TGI [50]: > 100 µM
TGI [62]: > 100 µM
TGI [63]: > 100 µM

CN(C)C(=O)N(CCCl)N=O
TGI [1]: > 100 µM
TGI [2]: > 100 µM
TGI [53]: > 100 µM
TGI [3]: > 100 µM
TGI [4]: > 100 µM
TGI [5]: > 100 µM
TGI [6]: > 100 µM
TGI [7]: > 100 µM
TGI [8]: > 100 µM
TGI [9]: > 100 µM
TGI [10]: > 100 µM
TGI [11]: > 100 µM
TGI [12]: > 100 µM
TGI [13]: > 100 µM
TGI [14]: > 100 µM
TGI [15]: > 100 µM
TGI [16]: > 100 µM
TGI [17]: > 100 µM
TGI [18]: > 100 µM
TGI [19]: > 100 µM
TGI [20]: > 100 µM
TGI [21]: > 100 µM
TGI [22]: > 100 µM
TGI [23]: > 100 µM
TGI [24]: > 100 µM
TGI [25]: > 100 µM
TGI [26]: > 100 µM
TGI [27]: > 100 µM
TGI [28]: > 100 µM
TGI [29]: > 100 µM
TGI [30]: > 100 µM
TGI [31]: > 100 µM
TGI [32]: > 100 µM
TGI [33]: > 100 µM
TGI [34]: > 100 µM
TGI [64]: > 100 µM
TGI [35]: > 100 µM
TGI [36]: > 100 µM
TGI [37]: > 100 µM
TGI [58]: > 100 µM
TGI [38]: > 100 µM
TGI [39]: > 100 µM
TGI [40]: > 100 µM
TGI [41]: > 100 µM
TGI [59]: > 100 µM
TGI [42]: > 100 µM
TGI [43]: > 100 µM
TGI [44]: > 100 µM
TGI [45]: > 100 µM
TGI [46]: > 100 µM
TGI [47]: > 100 µM
TGI [48]: > 100 µM
TGI [49]: > 100 µM
TGI [50]: > 100 µM
TGI [62]: > 100 µM
TGI [63]: > 100 µM

CCOC(=O)/C(ON)=C(/CC/C(C(=O)OC)=C(\ON)C(=O)OCC)C(=O)OC
TGI [51]: > 100 µM
TGI [1]: > 100 µM
TGI [2]: > 100 µM
TGI [52]: > 100 µM
TGI [53]: > 100 µM
TGI [3]: > 100 µM
TGI [4]: > 100 µM
TGI [5]: > 100 µM
TGI [6]: > 100 µM
TGI [7]: > 100 µM
TGI [8]: > 100 µM
TGI [9]: > 100 µM
TGI [10]: > 100 µM
TGI [11]: > 100 µM
TGI [12]: > 100 µM
TGI [13]: > 100 µM
TGI [14]: > 100 µM
TGI [15]: > 100 µM
TGI [16]: > 100 µM
TGI [17]: > 100 µM
TGI [18]: > 100 µM
TGI [19]: > 100 µM
TGI [20]: > 100 µM
TGI [21]: > 100 µM
TGI [54]: > 100 µM
TGI [55]: > 100 µM
TGI [22]: > 100 µM
TGI [23]: > 100 µM
TGI [25]: > 100 µM
TGI [56]: > 100 µM
TGI [26]: > 100 µM
TGI [27]: > 100 µM
TGI [28]: > 100 µM
TGI [30]: > 100 µM
TGI [31]: > 100 µM
TGI [32]: > 100 µM
TGI [33]: > 100 µM
TGI [35]: > 100 µM
TGI [36]: > 100 µM
TGI [57]: > 100 µM
TGI [37]: > 100 µM
TGI [58]: > 100 µM
TGI [38]: > 100 µM
TGI [39]: > 100 µM
TGI [40]: > 100 µM
TGI [41]: > 100 µM
TGI [59]: > 100 µM
TGI [42]: > 100 µM
TGI [44]: > 100 µM
TGI [45]: > 100 µM
TGI [46]: > 100 µM
TGI [60]: > 100 µM
TGI [47]: > 100 µM
TGI [61]: > 100 µM
TGI [48]: > 100 µM
TGI [49]: > 100 µM
TGI [50]: > 100 µM
TGI [62]: > 100 µM
TGI [63]: > 100 µM
